Test results from patent publication US20220380329A1, “A HYPERBRANCHED POLYGLYCEROL POLYGLYCIDYL ETHER AND ITS USE AS CROSSLINKER FOR POLYSACCHARIDES” (BIOPOLIMERI S.R.L., priority 2019, published 2022).

Tested on: 3T3 mouse fibroblasts
Assay: MTT viability assay, cells grown in direct contact with the crosslinker
Type: cell-based
Conditions: direct contact with cross-linker solutions of same epoxy equivalents, without polysaccharide; control culture medium in NaCl 0.9%
Experimental: MTT assay was used to evaluate the viability of 3T3 mouse fibroblasts grown.
c) MTT assay on cells grown in direct contact with the crosslinker
The MTT assay was performed on cells grown in direct contact with a solution containing cross-linker solutions. The solution contains the same epoxy equivalents, following the same steps of the manufacturing process of hydrogels—such as chemical reaction, washing and sterilization, but without the addition of the polysaccharide.

C(CCOCC1CO1)COCC1CO1 (stereo not shown) [BDDE, 1,4-butane diol diglycidyl ether]
cell viability (MTT): significant decrease of cells viability and signs of suffering
